Assay results from PubChem BioAssay (NCI).
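Where inhibition never reached the appropriate level, the endpoint shown equals the highest concentration tested. Otherwise, values were interpolated linearly from a five-concentration, 48-hour dose response in 96-well plates. Definition used: TGI = concentration required for complete inhibition of growth.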

Legend:
Assay in all cases: DTP human tumour cell line panel, 48 h
CAKI-1 renal = test system: CAKI-1 renal
SK-OV-3 ovarian = test system: SK-OV-3 ovarian
RPMI-8226 leukemia = test system: RPMI-8226 leukemia
M19-MEL melanoma = test system: M19-MEL melanoma
ACHN renal = test system: ACHN renal
SF-268 CNS = test system: SF-268 CNS
HCT-116 colon = test system: HCT-116 colon
RXF 393 renal = test system: RXF 393 renal
OVCAR-8 ovarian = test system: OVCAR-8 ovarian
DLD-1 colon = test system: DLD-1 colon
U251 CNS = test system: U251 CNS
UACC-257 melanoma = test system: UACC-257 melanoma
UO-31 renal = test system: UO-31 renal
MALME-3M melanoma = test system: MALME-3M melanoma
NCI-H23 lung = test system: NCI-H23 lung
SN12C renal = test system: SN12C renal
NCI-H460 lung = test system: NCI-H460 lung
KM12 colon = test system: KM12 colon
OVCAR-4 ovarian = test system: OVCAR-4 ovarian
SK-MEL-5 melanoma = test system: SK-MEL-5 melanoma
LXFL 529 NSCLC = test system: LXFL 529 NSCLC
CCRF-CEM leukemia = test system: CCRF-CEM leukemia
LOX IMVI melanoma = test system: LOX IMVI melanoma
786-0 renal = test system: 786-0 renal
XF 498 CNS = test system: XF 498 CNS
OVCAR-5 ovarian = test system: OVCAR-5 ovarian
OVCAR-3 ovarian = test system: OVCAR-3 ovarian
HOP-18 NSCLC = test system: HOP-18 NSCLC
K-562 leukemia = test system: K-562 leukemia
TK-10 renal = test system: TK-10 renal
HL-60(TB) leukemia = test system: HL-60(TB) leukemia
M14 melanoma = test system: M14 melanoma
IGROV1 ovarian = test system: IGROV1 ovarian
HCT-15 colon = test system: HCT-15 colon
MOLT-4 leukemia = test system: MOLT-4 leukemia
DMS 114 small cell lung = test system: DMS 114 small cell lung
SNB-78 CNS = test system: SNB-78 CNS
HT29 colon = test system: HT29 colon
HOP-62 NSCLC = test system: HOP-62 NSCLC
SF-539 CNS = test system: SF-539 CNS
HOP-92 NSCLC = test system: HOP-92 NSCLC
A549 NSCLC = test system: A549 NSCLC
SK-MEL-2 melanoma = test system: SK-MEL-2 melanoma
KM20L2 colon = test system: KM20L2 colon
DMS 273 small cell lung = test system: DMS 273 small cell lung
SNB-75 CNS = test system: SNB-75 CNS
COLO 205 colon = test system: COLO 205 colon
HCC-2998 colon = test system: HCC-2998 colon
SF-295 CNS = test system: SF-295 CNS
SNB-19 CNS = test system: SNB-19 CNS
SW-620 colon = test system: SW-620 colon
UACC-62 melanoma = test system: UACC-62 melanoma
A498 renal = test system: A498 renal
EKVX NSCLC = test system: EKVX NSCLC
SR leukemia = test system: SR leukemia
NCI-H522 lung = test system: NCI-H522 lung
SK-MEL-28 melanoma = test system: SK-MEL-28 melanoma
NCI-H226 lung = test system: NCI-H226 lung

Measured: TGI

COC(=O)CC(=O)OC
not listed: SR leukemia | NCI-H522 lung | SK-MEL-28 melanoma | NCI-H226 lung
> 100 µM: all other assays above

Cc1cc(C)c(-n2c(-c3ccccc3)cs/c2=N\N=C2C=C(C(C)(C)C)C(=O)C(C(C)(C)C)=C2)c(C)c1
94.6 µM: SNB-75 CNS
not listed: UO-31 renal | A498 renal
> 100 µM: all other assays above

CCN(CC)CCN1CCc2c([nH]c3ccccc23)C1c1cccnc1 (stereo unspecified)
not listed: RXF 393 renal | MALME-3M melanoma | SK-MEL-2 melanoma | COLO 205 colon | NCI-H226 lung
> 100 µM: all other assays above

N#CCCN(CCC#N)c1ccc(/C=C2\N=C(c3cc([N+](=O)[O-])ccc3Cl)N(S(=O)(=O)c3ccccc3)C2=O)cc1
not listed: UACC-257 melanoma | NCI-H460 lung | 786-0 renal | HL-60(TB) leukemia | M14 melanoma | HT29 colon | SNB-75 CNS | A498 renal
> 100 µM: all other assays above

CCCCCCCCCCCCCC(=S)N/C=C/OC
86.2 µM: A498 renal
74 µM: NCI-H23 lung
36.8 µM: HL-60(TB) leukemia
57 µM: UACC-257 melanoma
61.7 µM: SK-MEL-5 melanoma
46.8 µM: LOX IMVI melanoma
56.2 µM: CCRF-CEM leukemia
56.1 µM: OVCAR-3 ovarian
53.1 µM: U251 CNS
81.9 µM: KM12 colon
99.6 µM: M19-MEL melanoma
74.5 µM: HOP-92 NSCLC
95.6 µM: UO-31 renal
71.4 µM: COLO 205 colon
51.5 µM: RPMI-8226 leukemia
53.3 µM: HCT-15 colon
85.4 µM: SF-295 CNS
48.3 µM: DMS 114 small cell lung
46.3 µM: NCI-H522 lung
96.4 µM: ACHN renal
45.9 µM: HCC-2998 colon
81.7 µM: EKVX NSCLC
50.1 µM: HT29 colon
51.9 µM: XF 498 CNS
73 µM: SK-MEL-2 melanoma
71.3 µM: UACC-62 melanoma
54.8 µM: RXF 393 renal
not listed: CAKI-1 renal | K-562 leukemia | MOLT-4 leukemia | DMS 273 small cell lung | SR leukemia
> 100 µM: all other assays above
